Where a name gives a salt, the structure may show the parent alone.
Columns and labels:
Assay type in all cases: biochemical
[1] = biological target: mu opioid receptor (MOR) (Homo sapiens, UniProt P35372); test: GTP-γ-S binding assay (SPA), antagonist mode, mu; conditions: antagonism of agonist DAMGO 1 micromolar; membranes; Kb by Cheng-Prusoff equation; read-out: In Vitro Antagonism GTP-γ-S Kb (nM) Mu
Procedure: (§1) A scintillation proximity assay (SPA)-based GTP-γ-S^35 assay format was developed based on previous opioid (Emmerson et al., J. Pharm Exp Ther 278, 1121, 1996; Horng et al., Society for Neuroscience Abstracts, 434.6, 2000) and muscarinic (DeLapp et al., JPET 289, 946, 1999) assay formats. Membranes were resuspended in 20 mM HEPES, 100 mM NaCl, 5 mM MgCl2, 1 mM DTT, and 1 mM EDTA. […] of GTP-γ-[35S], compound, membrane suspension (20 microgram/well), and wheat germ agglutinin coated SPA beads (1 mg/well) were added to clear bottom 96 well assay plates. GDP ([…]) was added to the membrane solution prior to addition to the assay plates. Plates were sealed and incubated for four hours at room temperature then placed in a refrigerator overnight to allow the beads to settle. Signal stability at 4° C. was determined to be >60 hours. Plates were warmed to room temperature and counted in a Wallac Microbeta scintillation counter. For antagonist assays, specific agonists were added at the following concentrations: (MOR) DAMGO 1 micromolar, (DOR) DPDPE 30 nM, (KOR) US69593 300 nM. Kb's were determined by Cheng-Prusoff equation (see Cheng and Prusoff, Biochem. Pharmacol. 22, 3099 1973).

[2] = biological target: delta opioid receptor (DOR) (Homo sapiens, UniProt P41143); test: GTP-γ-S binding assay (SPA), antagonist mode, delta; conditions: antagonism of agonist DPDPE 30 nM; membranes; Kb by Cheng-Prusoff equation; read-out: In Vitro Antagonism GTP-γ-S Kb (nM) Delta
Chain of delta opioid receptor (DOR) (P41143 whole entry): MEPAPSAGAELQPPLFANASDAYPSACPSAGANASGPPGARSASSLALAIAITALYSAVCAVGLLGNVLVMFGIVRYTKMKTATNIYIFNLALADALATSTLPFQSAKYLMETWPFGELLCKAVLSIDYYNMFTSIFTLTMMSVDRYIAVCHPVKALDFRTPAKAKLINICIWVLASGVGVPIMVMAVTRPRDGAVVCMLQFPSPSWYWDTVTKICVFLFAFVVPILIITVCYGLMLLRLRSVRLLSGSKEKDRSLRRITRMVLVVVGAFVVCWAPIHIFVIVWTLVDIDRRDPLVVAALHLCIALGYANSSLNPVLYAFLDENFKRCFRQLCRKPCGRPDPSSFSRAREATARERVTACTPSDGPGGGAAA
Procedure: as §1

[3] = biological target: kappa opioid receptor (KOR) (Homo sapiens, UniProt P41145); test: GTP-γ-S binding assay (SPA), antagonist mode, kappa; conditions: antagonism of agonist US69593 300 nM; membranes; Kb by Cheng-Prusoff equation; read-out: In Vitro Antagonism GTP-γ-S Kb (nM) Kappa
Chain of kappa opioid receptor (KOR) (P41145 whole entry): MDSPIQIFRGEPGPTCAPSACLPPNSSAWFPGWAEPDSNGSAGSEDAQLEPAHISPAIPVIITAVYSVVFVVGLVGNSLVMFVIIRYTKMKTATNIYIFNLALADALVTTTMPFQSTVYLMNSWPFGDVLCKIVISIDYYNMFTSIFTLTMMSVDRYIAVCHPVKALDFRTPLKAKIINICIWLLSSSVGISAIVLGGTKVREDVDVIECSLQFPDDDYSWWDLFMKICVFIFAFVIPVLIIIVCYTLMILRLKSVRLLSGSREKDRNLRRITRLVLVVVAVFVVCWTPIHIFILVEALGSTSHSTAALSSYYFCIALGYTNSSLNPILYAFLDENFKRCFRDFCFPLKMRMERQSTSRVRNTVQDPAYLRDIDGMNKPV
Procedure: as §1

Chain of mu opioid receptor (MOR) (P35372 whole entry): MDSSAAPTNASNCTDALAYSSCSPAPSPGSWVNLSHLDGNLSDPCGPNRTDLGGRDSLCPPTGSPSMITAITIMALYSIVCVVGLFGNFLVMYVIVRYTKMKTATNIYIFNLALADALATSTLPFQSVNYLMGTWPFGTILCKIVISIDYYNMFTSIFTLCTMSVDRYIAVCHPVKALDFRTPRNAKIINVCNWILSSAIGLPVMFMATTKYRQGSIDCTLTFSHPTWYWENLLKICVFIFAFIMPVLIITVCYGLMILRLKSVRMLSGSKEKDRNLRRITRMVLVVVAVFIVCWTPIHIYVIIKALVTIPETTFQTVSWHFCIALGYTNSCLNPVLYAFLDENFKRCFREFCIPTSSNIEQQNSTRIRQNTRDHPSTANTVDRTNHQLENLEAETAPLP

Kb [1] [nM] | Kb [2] [nM] | Kb [3] [nM] | SMILES
0.6 | 2.4 | 1.4 | NC(=O)c1ccc(Oc2ccc(CNCCc3cccs3)s2)cc1 [Example 5, 4-{5-[(2-Thiophen-2-yl-ethylamino)-methyl]-thiophen-2-yloxy}-benzamide]
0.6 | 3.3 | 4.6 | NC(=O)c1ccc(Oc2ccc(CNCCc3ccccc3)s2)cc1 [Example 1, 4-[5-(Phenethylamino-methyl)-thiophen-2-yloxy]-benzamide]
0.6 | 1.6 | 3.9 | NC(=O)c1ccc(Oc2ccc(CNCCc3cccc(F)c3)s2)cc1 [Example 3, 4-(5-{[2-(3-Fluoro-phenyl)-ethylamino]-methyl}-thiophen-2-yloxy)-benzamide]

Continued, compound first:

SMILES | Kb [1] [nM] | Kb [2] [nM] | Kb [3] [nM]
NC(=O)c1ccc(Oc2ccc(CNCCC3CCCC3)s2)cc1 [Example 4, 4-{5-[(2-Cyclopentyl-ethylamino)-methyl]-thiophen-2-yloxy}-benzamide] | 0.6 | 2.7 | 1
COc1cc(C(N)=O)ccc1Oc1ccc(CNCCc2ccccc2)s1 [Example 7, 3-Methoxy-4-[5-(phenethylamino-methyl)-thiophen-2-yloxy]-benzamide hydrochloride] | 0.3 | 1.3 | 4
COc1cc(C(N)=O)ccc1Oc1ccc(CNCCC(C)C)s1 [Example 8, 3-Methoxy-4-{5-[(3-methyl-butylamino)-methyl]-thiophen-2-yloxy}-benzamide hydrochloride] | 4.7 | 40.5 | 3.2
CC(C)CCNCc1ccc(Oc2ccc(C(N)=O)cc2)s1 [Example 2, 4-{5-[(3-Methyl-butylamino)-methyl]-thiophen-2-yloxy}-benzamide] | 3.7 | 19.4 | 2.2
CC(C)(C)CCNCc1ccc(Oc2ccc(C(N)=O)cc2)s1 [Example 6, 4-{5-[(3,3-Dimethyl-butylamino)-methyl]-thiophen-2-yloxy}-benzamide] | 5.7 | 13.7 | 

Source: patent US7396943B2, “Opioid receptor antagonists” (Eli Lilly and Company, priority 2004, dated 2008)
